The values that follow come from PubChem BioAssay AID489041 (Sanford-Burnham Center for Chemical Genomics, 2010).

In general, IC50 refers to the midpoint of a concentration-inhibition curve.

Structures are written as SMILES. Active and inactive are the calls of the source. The rule behind the calls is not given here. Bounds are passed on as bounds.

The assay concerns HEK-293T NF-kB luciferase reporter counterscreen, luminescence. Nature of the assay: inhibitors of HEK-293T NF-kB luciferase – HEK-293T cells, luminescence, counter-screen for T-cell antigen receptor NF-kB inhibitors, dose response (AID 489041). (The purpose of a counterscreen is to sort out artefacts and off-target activity.)
For the compound `Nc1nc2n[nH]nc2c(=O)[nH]1`, the IC50 was > 80 µM (inactive).
As to `Cn1nc(CC(=O)Nc2ccc(N3CCN(C(=O)OC(C)(C)C)CC3)cc2)c2ccccc2c1=O`, the IC50 was 0.76 µM.
`Cn1nc(C(C)(C)C)cc1C(=O)NCc1cc(F)cc2c1OCOC2`: the IC50 is 2.47 µM.
Under `C=CCOC(=O)c1[nH]c2c(c1C)C(=O)CC(c1ccco1)C2` (stereo unspecified) stands less than 0.16 µM.
Under `CCOc1ccc(-c2[nH]ncc2-c2ccc(OC)c(OC)c2)c(O)c1` stands 10.4 µM; under `CC(=O)Nc1ccc(S(=O)(=O)N2CCCc3ccccc32)cc1`, 26.6 µM (inactive); under `Cc1cc(NC(=O)CSc2nc3c(sc4ccccc43)c(=O)n2CCCN2CCOCC2)n[nH]1`, 1.02 µM.
Consider `O=S(=O)(Nc1cccc2ncccc12)c1cccs1`, for which the IC50 is > 80 µM (inactive).
Under `O=C(Nc1ccc(N2CCN(C(=O)c3ccc(Cl)cc3)CC2)cc1)c1ccc2c(c1)OCCO2` stands 3.1 µM; under `COc1cc(/C=C/C(=O)c2ccc([N+](=O)[O-])o2)ccc1O`, 7.49 µM.
As to `Cc1cccc(N(C)S(=O)(=O)c2ccc(-c3cnc(C4CC4)o3)cc2)c1`, the IC50 was 0.57 µM.
Under `Cc1cccc(OCCNC(=O)c2ccc(Cl)c(S(=O)(=O)NCc3cccnc3)c2)c1` stands 10.1 µM; under `CCCCCCCCCCCCCCCC[n+]1cccc(C(=O)N(CC)CC)c1`, 20.9 µM (inactive).
Under `CCOc1ccc2c(c1)OC(c1ccc(OC)cc1)(C(F)(F)F)NC2=O` (stereo unspecified) stands 9.2 µM.
As for `COc1cc(C(=O)N/N=C/c2cc([N+](=O)[O-])cs2)cc(OC)c1OC`, the IC50 was 1.91 µM.
Under `CC(=O)c1ccc(N2CCN(S(=O)(=O)c3ccc4c(c3)CC(C)N4C(=O)C3CC3)CC2)cc1` (stereo unspecified) stands 3.06 µM.
Under `CCOC(=O)c1[nH]c(C)c(C(=O)Nc2cc(OC)ccc2OC)c1C` stands > 80 µM (inactive); under `Cc1cc(C(C)(C)C)cc(C)c1C[n+]1ccc2ccccc2c1`, 4.34 µM.
Under `CCOC(=O)N1CCN(C(=O)C2CCCN(Cc3nc(-c4ccc(Cl)cc4)oc3C)C2)CC1` (stereo unspecified) stands 3 µM; under `COc1ccc(C(=O)N2CCN(c3ccc([N+](=O)[O-])c(NCCc4ccc(OC)c(OC)c4)c3)CC2)cc1`, 0.31 µM; under `Cc1nc(NCc2ccco2)c2c(C)c(C)sc2n1`, 1.82 µM.
Turning to `CC#CC(=O)N1CCC(n2nccc2NC(=O)c2ccc3c(c2)OCO3)CC1`, the IC50 is > 80 µM (inactive).
Under `COc1ccc(/C=N\NC(=O)c2ccccc2F)cc1COc1ccc(F)cc1F` stands 8.43 µM; under `COc1ccc(C)cc1NS(=O)(=O)c1ccc(-c2cnc(C3CC3)o2)cc1`, 0.84 µM; under `O=C(OCCN1C(=O)c2cccc3c(N4CCOCC4)ccc(c23)C1=O)c1ccc(Cl)cc1`, 7.66 µM.
For the compound `COc1ccc(-c2ccc3oc(-c4ccc(OC)cc4)c(C#CCO)c3c2)cc1`, the IC50 is 14.2 µM.
Under `COc1cccc(/C=N/Nc2ncnc3scc(-c4ccccc4)c23)c1O` stands 4.6 µM; under `O=c1cc(-c2ccccc2)[nH]c2cc(F)ccc12`, 2.62 µM; under `COc1cc2c(c(OC)c1OC)-c1ccc(OC)c(=O)cc1[C@@H](NC(C)=O)CC2`, less than 0.16 µM.
For the compound `COc1ccc(C2=NOC(C(=O)NCc3ccc(F)cc3)C2)cc1OC` (stereo unspecified), the IC50 was 14.7 µM.
Under `CCN1C/C(=C/c2ccc(OC)c(O)c2)C(=O)/C(=C/c2ccc(OC)c(O)c2)C1` stands 39 µM (inactive).
Under `c1ccc(-c2noc(-c3ccc4ccccc4c3)n2)nc1` stands 3.2 µM; under `Cc1csc2ncnc(NC3CCN(Cc4ccccc4)CC3)c12`, 2.22 µM; under `O=C(c1ccccc1)c1nn(-c2ccc(Cl)cc2)c(=O)cc1C(F)(F)F`, 5 µM.
Turning to `COC(=O)c1[nH]c2c(c1C)C(=O)CC(c1cccc(OC)c1)C2` (stereo unspecified), the IC50 is 2.58 µM.
Under `CC1=C(C(=O)OCc2ccc3c(c2)OCO3)C(c2ccc(Cl)cc2)NC(=O)N1` (stereo unspecified) stands less than 0.16 µM.
Under `O=C(N/N=C/c1c(O)ccc2ccccc12)c1cccc(C(F)(F)F)c1` stands 3.01 µM.
Under `O=C(Nc1ccc(S(=O)(=O)Nc2ccc(F)cc2)cc1)c1ccc(CN2CCOCC2)cc1` stands 5.68 µM; under `Cc1ccc(/C=C/c2ccc(N(C)C)cc2)[n+](C)c1`, 2.7 µM.
As to `O=C(c1ccc(Br)cc1)c1cc([N+](=O)[O-])ccc1N1CCOCC1`, the IC50 is 10.8 µM.
`COc1ccc(C)c(Cn2c(-c3nonc3N)nc3ccccc32)c1`: the 50% inhibitory concentration (IC50) was 1.84 µM.
Under `Cc1ccc(Nc2cc(C)nn2-c2nc(C)cc(=O)[nH]2)cc1` stands > 80 µM (inactive).
Under `CN=c1scc(-c2cccs2)n1/N=C/c1ccccc1O` stands less than 0.16 µM.
Under `CC1(C)CC(N2CCN(C(c3ccccc3)c3ccccc3)CC2)=CC(=[N+]2CCCCC2)C1` stands 1.25 µM; under `COc1cc([C@@H]2c3cc4c(cc3[C@@H](OC)[C@H]3COC(=O)[C@H]23)OCO4)cc(OC)c1O`, > 80 µM (inactive).
For `CCCCOc1ccc(Br)cc1/C(C)=N/NC1=NCCN1`, the IC50 was 6.14 µM.
Under `CCC(=O)N1c2ccc(S(=O)(=O)N3CCN(c4ccc([N+](=O)[O-])cc4)CC3)cc2CC1C` (stereo unspecified) stands > 80 µM (inactive); under `COc1ccc(OC)c(CCNC(=O)Cn2nc(C)c3c(C)n(-c4ccc(C)cc4)nc3c2=O)c1`, 1.28 µM.
Under `CCCCS(=O)(=O)/C=C\C=C/S(=O)(=O)CCCC` stands 20.2 µM (inactive); under `CCOc1ccccc1NC(=O)Cn1nnc(C(=O)NCc2cccs2)c1N`, 2.87 µM.
Under `COc1ccc2c(C)nc(Nc3nc(-c4ccccc4)cc(=O)[nH]3)nc2c1` stands 1.54 µM; under `Cc1noc(C)c1COc1ccc(C(=O)NNC(=O)c2ccccc2F)cc1`, 30.3 µM (inactive).
Consider `CCOc1ccccc1C1CC(=O)Nc2cc3c(cc21)OCO3` (stereo unspecified), for which the IC50 is 6.14 µM.
On to `CC1(C)C[C@H]2C=C(C=O)[C@]3(C=O)C[C@]3(C)[C@H]2C1`, for which the IC50 is 31.1 µM (inactive).
Under `O=C(CSc1nnc(Cn2nnc3ccccc32)o1)N(Cc1ccc(F)cc1)c1ccccc1` stands 0.94 µM; under `CCN1/C(=C/C(C)=C/c2sc3ccccc3[n+]2CC)Sc2ccccc21`, 0.78 µM; under `O=C(N/N=C\c1c(O)ccc2ccccc12)c1ccc(S(=O)(=O)N2CCCCC2)cc1`, > 80 µM (inactive).
Under `CCOCCCNC(=O)c1ccc2c(c1)N=C(CC)c1cc(Br)ccc1S2` stands 1.46 µM; under `Cc1oc2c(c1C(=O)NCc1cccnc1)C(=O)c1ccccc1C2=O`, 1.48 µM.
Under `N#C/C(=C\c1ccc(OCc2ccc(C(=O)O)cc2)cc1)C(=O)N1CCOCC1` stands 4.51 µM; under `Clc1cccc(Cl)c1OCCOCCNCc1ccccc1`, 68.4 µM (inactive).
Regarding `CC1=Nc2ccccc2/C1=C\c1sc(Nc2ccc(C)cc2)nc1O`, the IC50 is 3.6 µM.
Turning to `Cc1ccc(C(=O)c2cc([N+](=O)[O-])ccc2N2CCOCC2)c(C)c1`, the IC50 was 4.92 µM.
Turning to `O=C(CNC(=O)c1ccco1)N=Nc1c(O)n(CCc2ccccc2)c2ccccc12`, the IC50 was 5.17 µM.
Under `O=C(NCc1cccs1)C1CCN(c2ccc(S(=O)(=O)N3CCOCC3)cc2Cl)CC1` stands 8.56 µM; under `COC(=O)c1c(NC(=O)c2ccc([N+](=O)[O-])o2)sc2c1CCN(C(C)C)C2`, 51.8 µM (inactive).
